What was measured:
human fibroblasts = experiment: TGF-β-induced differentiation from fibroblasts to myofibroblasts, immunofluorescence staining of collagen; type: cell-based; conditions: TGF-β treated fibroblasts; darapladib 0.25 nM and 0.5 nM applied 1 hour before TGF-β; vs TGF-β treated group; FIG. 1
Description: To identify the effect of darapladib on suppression of differentiation from fibroblasts to myofibroblasts, used was a transforming growth factor-beta (TGF-β), a growth factor that induces differentiation from human fibroblasts to myofibroblasts. Darapladib was applied to the medium at low concentration (0.25 nM) and high concentration (0.5 nM) respectively 1 hour before TGF-β treatment and then fixed with 4% formaldehyde in a live state in a single-layer culture of fibroblasts, and immunofluorescence staining of collagen was performed, followed by visualization by confocal microscopy.

SKH-1 hairless mice [1] = experiment: Radiation-induced skin damage in SKH-1 hairless mice, appearance of skin; type: in vivo; conditions: day 20 after irradiation, FIG. 3
Description: (§1) In order to identify the effect of darapladib in improving radiation-induced skin damage, SKH-1 hairless mice, which has the most similar characteristics to the human skin layer, immune system, and vascular system, was used, and for the irradiated group, local irradiation was performed on the skin in a total of 40 Gy by irradiating two times by 20 Gy at intervals of 5 days. Darapladib was used to suppress radiation-induced skin damage, and subcutaneous injections were given at different concentrations (20 mg/kg and 40 mg/kg).

SKH-1 hairless mice [2] = experiment: Skin moisture content (Corneometer), moisture loss (Tewameter) and skin pH after irradiation; type: in vivo; conditions: 40 Gy local irradiation; day 20 after irradiation; skin pH meter; FIG. 4
Description: as §1, with “mg/kg). In addition, in order to quantitatively observe the effect of darapladib in inhibiting radiation-induced skin damage, the moisture content, moisture loss, and pH level of the skin were measured on day 20 after irradiation. The moisture content in the skin was measured using Corneometer (Corneometer CM825, CK electronic GmbH, Germany), the moisture loss by Tewameter (TM300, CK electronic GmbH, Germany), and the pH level of the skin by a skin pH meter (pH905, CK electronic GmbH, Germany).” for “mg/kg).”

SKH-1 hairless mice [3] = experiment: Histological changes in irradiated skin, hematoxylin and eosin staining, Image J quantification of adipocytes; type: in vivo
Description: In order to identify the effect of darapladib in improving radiation-induced skin damage, SKH-1 hairless mice, which has the most similar characteristics to the human skin layer, immune system, and vascular system, was used, and for the irradiated group, local irradiation was performed on the skin in a total of 40 Gy by irradiating two times by 20 Gy at intervals of 5 days. Darapladib was used to suppress radiation-induced skin damage, and subcutaneous injections were given at different concentrations (20 mg/kg and 40 mg/kg). In addition, in order to observe the histological changes in the skin, the extracted tissues were embedded by undergoing a paraffin infiltration process, a 4 μm thinned section was prepared to undergo deparaffinization and hydration followed by staining with hematoxylin and eosin, and then tissue damage, blood vessel damage, and changes in the epidermis, dermis, and adipocyte layer of skin tissue were observed using an optical microscope. In addition, to quantify the degree of skin damage, the area and number of granules in which adipocytes are present were calculated and statistically analyzed using the Image J program.

collagen = experiment: Masson's trichrome staining of irradiated skin (collagen deposition); type: in vivo, mice; conditions: day 20 after irradiation, IR/Dara group, FIG. 6
Description: as §1

α-SMA = α-SMA expression in irradiated skin by IHC staining, immunofluorescence and Western blot; type: in vivo, mice; conditions: FIG. 7
Description: as §1

vimentin = experiment: Vimentin expression in irradiated skin by immunohistochemistry; type: in vivo, mice; conditions: FIG. 8
Description: as §1, with “mg/kg). In addition, to identify the effect of darapladib on vimentin, which is another marker of fibrosis and applicable to immune diseases, immunohistochemistry (IHC) method was applied to stain the surface of the skin.” for “mg/kg).”

[4] = irradiated skin sections, H&E, Dara+IR group, FIG. 5A

In the case of CCN(CC)CCN(Cc1ccc(-c2ccc(C(F)(F)F)cc2)cc1)C(=O)Cn1c(SCc2ccc(F)cc2)nc(=O)c2c1CCC2 [darapladib], the expression of collagen (human fibroblasts) is reported as “decreased significantly”, the “fibrosis (chronic thickening of skin surface, red wounds, inflammation)” value (SKH-1 hairless mice [1]; 40 Gy local irradiation (2 x 20 Gy), subcutaneous 20 mg/kg and 40 mg/kg, vs irradiated group) is reported as “remarkably reduced” and the “recovery of irradiated skin” value (SKH-1 hairless mice [1]; 40 Gy local irradiation, subcutaneous 40 mg/kg (high concentration)) is reported as “recovery similar to that of the control group without irradiation”. For the same compound, the “skin pH” value (SKH-1 hairless mice [2]) was “remained slightly acidic”, the adipocyte granules (SKH-1 hairless mice [3]; [4]) was “retained” and the “thickness of the epidermis and dermis of the skin” value (SKH-1 hairless mice [3]; [4]) was “restored similar to the control group”. The area of adipocytes (SKH-1 hairless mice [3]; irradiated skin, Image J, FIGS. 5B and 5C) was “significantly recovered”, the “collagen fiber or thickness of the skin layer” value (collagen) was “restored to a level of the control group” and the “expression of α-SMA” value (α-SMA; IR/Dara group vs irradiated group) was “reduced expression of α-SMA compared to the irradiated group”. For the same compound, the “expression of α-SMA” value (α-SMA; high concentration, 40 mg/kg) was “expression level similar to that of the control group”, the vimentin expression (vimentin; IR/Dara group) was “decreased” and the vimentin expression (vimentin; high concentration, 40 mg/kg) was “similarly to the control group”.
